Reference: the OligoGym collection
Where “and” joins values, the source holds several entries; their conditions need not be identical. Equal values may be shown once. After the bases stand the sugars from the 5' end (letter, count) and the backbone: PS all phosphorothioate, else s phosphorothioate and o phosphodiester by linkage. Methylation of C is not given here. e = 2'-O-(2-methoxyethyl) (MOE); l = locked nucleic acid (LNA); d = 2'-deoxy (DNA)

Assays:
SNHG14 = conditions: ASO, Human Neuronal Cell
DGAT2 = conditions: ASO

Sequence	target mRNA inhibition (DGAT2; HepG2, 0.12 µM)	target mRNA inhibition (DGAT2; HepG2, 2.5 µM)	target mRNA inhibition (DGAT2; HepG2, 10 µM)	further results
AAAATCTCAACTACCATTT (sugars lddddlddddddlllldll, PS)	–	–	–	target mRNA inhibition (SNHG14; 7.5 µM): 45%
AAAATCTCAACTACCATTT (sugars ldlldlddddddddlldll, PS)	–	–	–	target mRNA inhibition (SNHG14; 7.5 µM): 30%
AAAATCTCAACTACCATTTT (sugars l1 d12 l4 d1 l2, PS)	–	–	–	target mRNA inhibition (SNHG14; 7.5 µM): 42%
AAAATCTCAACTACCATTTT (sugars l3 d11 l2 d1 l3, PS)	–	–	–	target mRNA inhibition (SNHG14; 7.5 µM): 12%
AAAATCTCAACTACCATTTT (sugars ldllddldddddddllddll, PS)	–	–	–	target mRNA inhibition (SNHG14; 7.5 µM): 5%
AAAATCTCAACTACCATTTT (sugars lllldldddddddlddllll, PS)	–	–	–	target mRNA inhibition (SNHG14; 7.5 µM): 14%
AAAATTATTTATACACCATC (sugars lldddllddddddllldlll, PS)	–	–	–	target mRNA inhibition (SNHG14; 7.5 µM): 63%
AAACTACCCTGCACAA (sugars l3 d10 l3, PS)	–	–	–	target mRNA inhibition (SNHG14; 0.2 µM): 22%; target mRNA inhibition (SNHG14; 1 µM): 39%
AAACTTTCCCAACATTAT (sugars l2 d12 l4, PS)	–	–	–	target mRNA inhibition (SNHG14; 0.2 µM): 35%; target mRNA inhibition (SNHG14; 1 µM): 49%
AAATCTCAACTACCATTTTT (sugars ldddldlddddddldlddll, PS)	–	–	–	target mRNA inhibition (SNHG14; 7.5 µM): 41%
AAATCTCAACTACCATTTTT (sugars lldlldldddddddldddll, PS)	–	–	–	target mRNA inhibition (SNHG14; 7.5 µM): 53%
TCAGAGACTCAGCCGCACCC (sugars e5 d10 e5, PS)	43% and 55%	–	–	–
TCAGCAGGTTGTGTGTCTTC (sugars e2 d13 e5, PS)	57%	–	–	–
TCAGCAGGTTGTGTGTCTTC (sugars e5 d10 e5, PS)	56%	3%	–	–
TCATACTAGACTATGCAGCC (sugars e5 d10 e5, PS)	–	72%	85%	–
TCATACTTACTGTTCAGCAG (sugars e5 d10 e5, PS)	–	74% and 65%	93% and 89%	–
TCATCTTTCCAGATCCGGAC (sugars e5 d10 e5, PS)	–	76%	89%	–
TCCAAGTGTACTTTGAGCAT (sugars e5 d10 e5, PS)	–	58% and 54%	84% and 91%	–
TCCAGGACCCTGGACATGAT (sugars e5 d10 e5, PS)	50%	–	–	–
TCCATGTCAGAGAGGCTCAG (sugars e5 d10 e5, PS)	–	54%	91%	–
TCCATTTTTTACCCAACCTT (sugars e5 d10 e5, PS)	–	56% and 49%	93% and 94%	–

Sequence	target mRNA inhibition (DGAT2; HepG2, 0.12 µM)	target mRNA inhibition (DGAT2; HepG2, 2.5 µM)	target mRNA inhibition (DGAT2; HepG2, 10 µM)	further results
TCCCCTTGGCAGAGAAACTG (sugars e5 d10 e5, PS)	47%	–	–	–
TCCGGACTGAATGTCACCTC (sugars e5 d10 e5, PS)	–	75%	85% and 90%	–
TCGCTAGAGTACAAGTTCTC (sugars e5 d10 e5, PS)	–	88%	93%	–
TCTCATTCATCTGGGCCCTG (sugars e5 d10 e5, PS)	–	65%	78%	–
TCTCATTTCTTATCTTCAAT (sugars e5 d10 e5, PS)	–	60% and 72%	88% and 93%	–
TCTCCTGTTTGATGGGT (sugars e3 d10 e4, PS)	–	41%	63%	–
TCTGATCAATTATTAACCTA (sugars e5 d10 e5, PS)	–	20%	55%	–
TCTTCTGGACCCATCGGCCC (sugars e5 d10 e5, PS)	37%	–	–	–
TCTTGTGCTTGTCGAAGAGC (sugars e5 d10 e5, PS)	62%	–	–	–
TCTTTTAAATAACCCACAGA (sugars e5 d10 e5, PS)	10%	–	–	–
TGAGGCCCTTCAGCTTGTGC (sugars e5 d10 e5, PS)	49%	–	–	–
TGAGGTTTAGGCTATGGTCT (sugars e5 d10 e5, PS)	–	66%	77%	–
TGATAGCATTGCCACTCCCA (sugars e2 d13 e5, PS)	69%	–	–	–
TGCAGCCTACAAGAGCCTGT (sugars e5 d10 e5, PS)	–	54%	90%	–
TGCAGCCTGGACAAGTCCTG (sugars e3 d14 e3, PS)	77%	27%	51%	target mRNA inhibition (DGAT2; HepG2, 20 µM): 68%
TGCAGCTAATGATACAAGGT (sugars e5 d10 e5, PS)	–	67%	89%	–
TGCAGGCCCAGCACCAAGGA (sugars e5 d10 e5, PS)	–	19%	39%	–
TGCCACAGGGCCCTTTCCAG (sugars e5 d10 e5, PS)	–	11%	67%	–
TGCCATTTAATGAGCTTCAC (sugars e5 d10 e5, PS)	–	79% and 81%	91% and 92%	–
TGGAGCTCAGAGACTCAGCC (sugars e2 d13 e5, PS)	82%	–	–	–
TGGAGCTCAGAGACTCAGCC (sugars e3 d14 e3, PS)	76%	–	–	–

Sequence	target mRNA inhibition (DGAT2; HepG2, 0.12 µM)	target mRNA inhibition (DGAT2; HepG2, 2.5 µM)	target mRNA inhibition (DGAT2; HepG2, 10 µM)	further results
TGGCCTGGATGGCAACCTAA (sugars e5 d10 e5, PS)	–	46%	83%	–
TGGCTCTCTAGATAGGGTGG (sugars e5 d10 e5, PS)	–	84% and 85%	89% and 87%	–
TGGGAACTATCACACCACCT (sugars e5 d10 e5, PS)	–	53% and 65%	90% and 94%	–
TGGTGGTCAGCAGGTTGTGT (sugars e5 d10 e5, PS)	51%	–	–	–
TGTGACCTTGGGATAGTCCC (sugars e5 d10 e5, PS)	–	63%	87%	–
TGTTGCCATCATACTAGACT (sugars e5 d10 e5, PS)	–	64%	75%	–
TTAAAAAAGACCTAACATTG (sugars e5 d10 e5, PS)	0%	–	–	–
TTAAGGGTTCATGGATCCCC (sugars e5 d10 e5, PS)	–	63% and 75% and 79%	91% and 93%	–
TTATAATTTCTTTTAAATAA (sugars e5 d10 e5, PS)	0%	–	–	–
TTCTGGACCCATCGGCCCCA (sugars e5 d10 e5, PS)	27%	–	–	–
TTGCCAGGCATGGAGCTCAG (sugars e5 d10 e5, PS)	37%	–	–	–
TTGCTCAGTTCTTCCAACCA (sugars e5 d10 e5, PS)	–	81% and 72%	93% and 94%	–
TTGGATAGTCGATTTACCAG (sugars e5 d10 e5, PS)	–	62%	92%	–
TTTAAATAACCCACAGACAC (sugars e5 d10 e5, PS)	14%	–	–	–
TTTAGGCTATGGTCTGAGCA (sugars e5 d10 e5, PS)	–	68% and 55%	85% and 78%	–
TTTCTAGGGAAGCATGTGCA (sugars e5 d10 e5, PS)	–	67% and 68%	90% and 88%	–
TTTCTTATCTTCAATCCTCA (sugars e5 d10 e5, PS)	–	56%	90%	–
TTTCTTTTAAATAACCCACA (sugars e5 d10 e5, PS)	1%	–	–	–
TTTGAAATCCAATGCACCTT (sugars e5 d10 e5, PS)	–	63%	96%	–
TTTTAAATAACCCACAGACA (sugars e5 d10 e5, PS)	10%	92%	60%	target mRNA inhibition (DGAT2; HepG2, 20 µM): 81%
